In the NIST ThermoML archive (doi:10.1021/je200637v):
Numbers after ± are expanded uncertainties.

Experiment: activity coefficient (dimensionless); of the first substance listed, at infinite dilution; xn = mol fraction of the nth substance listed
Settings: Liquid, Chromatography, x1 = 0

Structure (SMILES) | activity coefficient (322.85 K) | activity coefficient (332.65 K) | activity coefficient (343.15 K)
CCCCCCCCC [nonane] + CCCCCCCC[N+](CCCCCCCC)(CCCCCCCC)CCCCCCCC.O=S(=O)([N-]S(=O)(=O)C(F)(F)F)C(F)(F)F | 2.19 ± 0.1 | 2.14 ± 0.1 | 2.09 ± 0.09
CCCCCCCCC [nonane] + CCCC[N+](C)(CCCC)CCCC.O=S(=O)([N-]S(=O)(=O)C(F)(F)F)C(F)(F)F | 16.5 ± 0.76 | 16.1 ± 0.74 | 15 ± 0.69
CCCCCCCC [octane] + CCCCCCCCCC[N+](C)(C)C.O=S(=O)([N-]S(=O)(=O)C(F)(F)F)C(F)(F)F | 6.53 ± 0.3 | 6.41 ± 0.29 | 6.1 ± 0.28
CCCCCCCC [octane] + CCCCCCCC[N+](C)(C)C.O=S(=O)([N-]S(=O)(=O)C(F)(F)F)C(F)(F)F | 11 ± 0.51 | 10.3 ± 0.47 | 9.47 ± 0.43
CCCCCCCC [octane] + CCCCCCCC[N+](CCCCCCCC)(CCCCCCCC)CCCCCCCC.O=S(=O)([N-]S(=O)(=O)C(F)(F)F)C(F)(F)F | 1.73 ± 0.07 | 1.71 ± 0.07 | 1.69 ± 0.07
CCCCCCCC [octane] + CCCC[N+](C)(CCCC)CCCC.O=S(=O)([N-]S(=O)(=O)C(F)(F)F)C(F)(F)F | 11.6 ± 0.53 | 11.5 ± 0.53 | 10.8 ± 0.5
CCCC(C)=O [pentan-2-one] + CCCCCCCCCC[N+](C)(C)C.O=S(=O)([N-]S(=O)(=O)C(F)(F)F)C(F)(F)F | 0.44 ± 0.03 | 0.47 ± 0.03 | 0.47 ± 0.03
CCCC(C)=O [pentan-2-one] + CCCCCCCC[N+](C)(C)C.O=S(=O)([N-]S(=O)(=O)C(F)(F)F)C(F)(F)F | 0.57 ± 0.03 | 0.57 ± 0.03 | 0.57 ± 0.03
CCCC(C)=O [pentan-2-one] + CCCCCCCC[N+](CCCCCCCC)(CCCCCCCC)CCCCCCCC.O=S(=O)([N-]S(=O)(=O)C(F)(F)F)C(F)(F)F | 0.35 ± 0.04 | 0.36 ± 0.04 | 0.37 ± 0.03
CCCC(C)=O [pentan-2-one] + CCCC[N+](C)(CCCC)CCCC.O=S(=O)([N-]S(=O)(=O)C(F)(F)F)C(F)(F)F | 0.55 ± 0.03 | 0.58 ± 0.03 | 0.59 ± 0.03
CCC(=O)CC [pentan-3-one] + CCCCCCCCCC[N+](C)(C)C.O=S(=O)([N-]S(=O)(=O)C(F)(F)F)C(F)(F)F | 0.41 ± 0.03 | 0.43 ± 0.03 | 0.44 ± 0.03
CCC(=O)CC [pentan-3-one] + CCCCCCCC[N+](C)(C)C.O=S(=O)([N-]S(=O)(=O)C(F)(F)F)C(F)(F)F | 0.52 ± 0.03 | 0.53 ± 0.03 | 0.54 ± 0.03
CCC(=O)CC [pentan-3-one] + CCCCCCCC[N+](CCCCCCCC)(CCCCCCCC)CCCCCCCC.O=S(=O)([N-]S(=O)(=O)C(F)(F)F)C(F)(F)F | 0.32 ± 0.04 | 0.33 ± 0.04 | 0.35 ± 0.04
CCC(=O)CC [pentan-3-one] + CCCC[N+](C)(CCCC)CCCC.O=S(=O)([N-]S(=O)(=O)C(F)(F)F)C(F)(F)F | 0.5 ± 0.03 | 0.54 ± 0.03 | 0.56 ± 0.03
CCCO [propan-1-ol] + CCCCCCCCCC[N+](C)(C)C.O=S(=O)([N-]S(=O)(=O)C(F)(F)F)C(F)(F)F | 1.48 ± 0.06 | 1.37 ± 0.05 | 1.21 ± 0.04
CCCO [propan-1-ol] + CCCCCCCC[N+](C)(C)C.O=S(=O)([N-]S(=O)(=O)C(F)(F)F)C(F)(F)F | 1.7 ± 0.07 | 1.55 ± 0.06 | 1.37 ± 0.05
CCCO [propan-1-ol] + CCCCCCCC[N+](CCCCCCCC)(CCCCCCCC)CCCCCCCC.O=S(=O)([N-]S(=O)(=O)C(F)(F)F)C(F)(F)F | 1.22 ± 0.04 | 1.14 ± 0.03 | 1.04 ± 0.03
CCCO [propan-1-ol] + CCCC[N+](C)(CCCC)CCCC.O=S(=O)([N-]S(=O)(=O)C(F)(F)F)C(F)(F)F | 1.78 ± 0.08 | 1.64 ± 0.07 | 1.48 ± 0.06
CC(C)O [propan-2-ol] + CCCCCCCCCC[N+](C)(C)C.O=S(=O)([N-]S(=O)(=O)C(F)(F)F)C(F)(F)F | 1.38 ± 0.05 | 1.28 ± 0.04 | 1.15 ± 0.04
CC(C)O [propan-2-ol] + CCCCCCCC[N+](C)(C)C.O=S(=O)([N-]S(=O)(=O)C(F)(F)F)C(F)(F)F | 1.63 ± 0.07 | – | 1.32 ± 0.05
CC(C)O [propan-2-ol] + CCCCCCCC[N+](CCCCCCCC)(CCCCCCCC)CCCCCCCC.O=S(=O)([N-]S(=O)(=O)C(F)(F)F)C(F)(F)F | 1.21 ± 0.04 | 1.13 ± 0.03 | 1.05 ± 0.03
CC(C)O [propan-2-ol] + CCCC[N+](C)(CCCC)CCCC.O=S(=O)([N-]S(=O)(=O)C(F)(F)F)C(F)(F)F | 1.67 ± 0.07 | 1.54 ± 0.06 | 1.4 ± 0.05

Structure (SMILES) | activity coefficient (322.85 K) | activity coefficient (332.65 K) | activity coefficient (343.15 K)
CCC=O [propanal] + CCCCCCCCCC[N+](C)(C)C.O=S(=O)([N-]S(=O)(=O)C(F)(F)F)C(F)(F)F | 0.4 ± 0.03 | 0.42 ± 0.03 | 0.41 ± 0.03
CCC=O [propanal] + CCCCCCCC[N+](C)(C)C.O=S(=O)([N-]S(=O)(=O)C(F)(F)F)C(F)(F)F | 0.48 ± 0.03 | 0.47 ± 0.03 | 0.46 ± 0.03
CCC=O [propanal] + CCCCCCCC[N+](CCCCCCCC)(CCCCCCCC)CCCCCCCC.O=S(=O)([N-]S(=O)(=O)C(F)(F)F)C(F)(F)F | 0.25 ± 0.04 | 0.35 ± 0.04 | 0.35 ± 0.04
CCC=O [propanal] + CCCC[N+](C)(CCCC)CCCC.O=S(=O)([N-]S(=O)(=O)C(F)(F)F)C(F)(F)F | 0.49 ± 0.03 | 0.49 ± 0.03 | 0.5 ± 0.03
c1ccncc1 [pyridine] + CCCCCCCCCC[N+](C)(C)C.O=S(=O)([N-]S(=O)(=O)C(F)(F)F)C(F)(F)F | 0.46 ± 0.03 | 0.47 ± 0.03 | 0.47 ± 0.03
c1ccncc1 [pyridine] + CCCCCCCC[N+](C)(C)C.O=S(=O)([N-]S(=O)(=O)C(F)(F)F)C(F)(F)F | 0.45 ± 0.03 | 0.44 ± 0.03 | 0.43 ± 0.03
c1ccncc1 [pyridine] + CCCCCCCC[N+](CCCCCCCC)(CCCCCCCC)CCCCCCCC.O=S(=O)([N-]S(=O)(=O)C(F)(F)F)C(F)(F)F | 0.33 ± 0.04 | 0.33 ± 0.04 | 0.34 ± 0.04
c1ccncc1 [pyridine] + CCCC[N+](C)(CCCC)CCCC.O=S(=O)([N-]S(=O)(=O)C(F)(F)F)C(F)(F)F | 0.55 ± 0.03 | 0.56 ± 0.03 | 0.56 ± 0.03
ClC(Cl)(Cl)Cl [tetrachloromethane] + CCCCCCCCCC[N+](C)(C)C.O=S(=O)([N-]S(=O)(=O)C(F)(F)F)C(F)(F)F | 1.46 ± 0.06 | 1.5 ± 0.06 | 1.47 ± 0.06
ClC(Cl)(Cl)Cl [tetrachloromethane] + CCCCCCCC[N+](C)(C)C.O=S(=O)([N-]S(=O)(=O)C(F)(F)F)C(F)(F)F | 1.63 ± 0.07 | 1.63 ± 0.07 | 1.6 ± 0.06
ClC(Cl)(Cl)Cl [tetrachloromethane] + CCCCCCCC[N+](CCCCCCCC)(CCCCCCCC)CCCCCCCC.O=S(=O)([N-]S(=O)(=O)C(F)(F)F)C(F)(F)F | 0.63 ± 0.03 | 0.64 ± 0.03 | 0.64 ± 0.03
ClC(Cl)(Cl)Cl [tetrachloromethane] + CCCC[N+](C)(CCCC)CCCC.O=S(=O)([N-]S(=O)(=O)C(F)(F)F)C(F)(F)F | 2.11 ± 0.1 | 2.11 ± 0.1 | 2.07 ± 0.09
c1ccsc1 [thiophene] + CCCCCCCCCC[N+](C)(C)C.O=S(=O)([N-]S(=O)(=O)C(F)(F)F)C(F)(F)F | 0.65 ± 0.03 | 0.7 ± 0.03 | 0.68 ± 0.03
c1ccsc1 [thiophene] + CCCCCCCC[N+](C)(C)C.O=S(=O)([N-]S(=O)(=O)C(F)(F)F)C(F)(F)F | 0.69 ± 0.03 | 0.69 ± 0.03 | 0.69 ± 0.03
c1ccsc1 [thiophene] + CCCCCCCC[N+](CCCCCCCC)(CCCCCCCC)CCCCCCCC.O=S(=O)([N-]S(=O)(=O)C(F)(F)F)C(F)(F)F | 0.4 ± 0.03 | 0.4 ± 0.03 | 0.41 ± 0.03
c1ccsc1 [thiophene] + CCCC[N+](C)(CCCC)CCCC.O=S(=O)([N-]S(=O)(=O)C(F)(F)F)C(F)(F)F | 0.86 ± 0.03 | 0.88 ± 0.03 | 0.87 ± 0.03
Cc1ccccc1 [toluene] + CCCCCCCCCC[N+](C)(C)C.O=S(=O)([N-]S(=O)(=O)C(F)(F)F)C(F)(F)F | 0.84 ± 0.03 | 0.89 ± 0.03 | 0.89 ± 0.03
Cc1ccccc1 [toluene] + CCCCCCCC[N+](C)(C)C.O=S(=O)([N-]S(=O)(=O)C(F)(F)F)C(F)(F)F | 0.97 ± 0.03 | 0.98 ± 0.03 | 0.98 ± 0.03
Cc1ccccc1 [toluene] + CCCCCCCC[N+](CCCCCCCC)(CCCCCCCC)CCCCCCCC.O=S(=O)([N-]S(=O)(=O)C(F)(F)F)C(F)(F)F | 0.47 ± 0.03 | 0.48 ± 0.03 | 0.49 ± 0.03
Cc1ccccc1 [toluene] + CCCC[N+](C)(CCCC)CCCC.O=S(=O)([N-]S(=O)(=O)C(F)(F)F)C(F)(F)F | 1.13 ± 0.03 | 1.19 ± 0.04 | 1.19 ± 0.04
ClC(Cl)Cl [trichloromethane] + CCCCCCCCCC[N+](C)(C)C.O=S(=O)([N-]S(=O)(=O)C(F)(F)F)C(F)(F)F | 0.65 ± 0.03 | 0.68 ± 0.03 | 0.68 ± 0.03
ClC(Cl)Cl [trichloromethane] + CCCCCCCC[N+](C)(C)C.O=S(=O)([N-]S(=O)(=O)C(F)(F)F)C(F)(F)F | 0.63 ± 0.03 | 0.65 ± 0.03 | 0.66 ± 0.03
